“And” between values parts separate entries of the source, which are not always exact repeats. Identical values can stand only once. Where no end group is shown, it is not given here.
system: plasma proteins; assay: Proteins of Table 11 stably expressed in complete responders between days 1 and 28, Example 5 (Table 12); assay type: in vivo, human; conditions: between baseline (Day 1) and Day 28
Experimental: (§1) Due to the limited sample size, steroid-naive (N=10) and steroid-refractory (N=18) patients were combined for further analysis. Broad proteomic analysis of over 1000 proteins was conducted by OLINK Proteomics (Watertown, MA) using a proximity extension assay as described by the manufacturer. Data are presented as normalized protein expression (NPX) in log 2 scale. Statistical differences were evaluated using unpaired and paired t tests, one-way […] (ANOVA), and Pearson Correlation. Significance was conferred when P<0.05.

For `N#CCC1(n2cc(-c3ncnc4[nH]ccc34)cn2)CN(C2CCN(C(=O)c3ccnc(C(F)(F)F)c3F)CC2)C1` [itacitinib, {1-{1-[3-Fluoro-2-(trifluoromethyl)isonicotinoyl]piperidin-4-yl}-3-[4-(7H-pyrrolo[2,3-d]pyrimidin-4-yl)-1H-pyrazol-1-yl]azetidin-3-yl}acetonitrile], the “proteins from Table 11 that did not modulate in complete responders” value was 89.

system: plasma proteins; assay: Plasma proteins modulated between baseline and day 28 in responders (CR, VGPR, PR; n = 19), Example 6 (Table 13); assay type: in vivo, human; conditions: plasma protein (OLINK NPX); responders (CR, VGPR, PR; n = 19); itacitinib 200 mg or 300 mg QD with corticosteroids; day 28 vs baseline
Experimental: as §1
Longitudinal differences in protein expression were analyzed by evaluating plasma samples from baseline/screening and day 28.

Compared with ADGRG1, ANXA11 is lower in “Fold Change, Decreased Expression from Baseline to Day 28” value (“Fold Change, Decreased Expression” for short): −1.1823 for the first, −1.3456 for the second.

First: APP
Second: ARHGEF12
The “Fold Change, Decreased Expression” value of the first is higher: −1.5208 for the first, −1.8347 for the second.

Going from ARSB to AXIN1, the “Fold Change, Decreased Expression” value falls from −1.3432 to −1.8046.

Going from CA13 to CBL, the “Fold Change, Decreased Expression” value rises from −1.8816 to −1.7183.

First: CD27
Second: CD38
The “Fold Change, Decreased Expression” value of the first is lower: −1.6873 for the first, −1.4181 for the second.

Going from CLEC1B to COL4A1, the “Fold Change, Decreased Expression” value rises from −1.7033 to −1.2699.

First: CXCL5
Second: DECR1
The “Fold Change, Decreased Expression” value of the first is lower: −1.7254 for the first, −1.4327 for the second.

Going from DEFA1 to DKN1A, the “Fold Change, Decreased Expression” value rises from −1.9173 to −1.4302.

Going from DNAJB1 to DSC2, the “Fold Change, Decreased Expression” value rises from −1.7332 to −1.3652.

Going from EIF4G1 to FGR, the “Fold Change, Decreased Expression” value rises from −1.5969 to −1.4406.

Going from FKBP1B to HAVCR2, the “Fold Change, Decreased Expression” value rises from −1.9994 to −1.312.

First: HDGF
Second: HGF
The “Fold Change, Decreased Expression” value of the first is higher: −1.3392 for the first, −1.5542 for the second.

Going from IQGAP2 to ITGB2, the “Fold Change, Decreased Expression” value falls from −1.5317 to −1.6877.

First: LILRA5
Second: LY75
The “Fold Change, Decreased Expression” value of the first is lower: −1.342 for the first, −1.1401 for the second.

First: MAP4K5
Second: MAX
The “Fold Change, Decreased Expression” value of the first is lower: −1.658 for the first, −1.449 for the second.

First: MMP-1
Second: NCR1
The “Fold Change, Decreased Expression” value of the first is lower: −1.4112 for the first, −1.3726 for the second.

Compared with NEMO, NMNAT1 is higher in “Fold Change, Decreased Expression” value: −1.7984 for the first, −1.4212 for the second.

First: NRP1
Second: PAPPA
The “Fold Change, Decreased Expression” value of the first is higher: −1.1237 for the first, −1.3491 for the second.

First: PDGF subunit A
Second: PECAM-1
The “Fold Change, Decreased Expression” value of the first is lower: −1.6021 for the first, −1.2009 for the second.

Compared with PLXNA4, PPP1R9B is lower in “Fold Change, Decreased Expression” value: −1.405 for the first, −1.6445 for the second.

First: PTX3
Second: PXN
The “Fold Change, Decreased Expression” value of the first is lower: −1.5567 for the first, −1.329 for the second.

First: SIGLEC1
Second: STIP1
The “Fold Change, Decreased Expression” value of the first is lower: −1.3842 for the first, −1.2812 for the second.

Going from Siglec-9 to THBS4, the “Fold Change, Decreased Expression” value falls from −1.1514 to −1.7307.

First: TIMP1
Second: TNC
The “Fold Change, Decreased Expression” value of the first is higher: −1.2337 for the first, −1.6915 for the second.

Going from TNXB to TOP2B, the “Fold Change, Decreased Expression” value falls from −1.156 to −1.7634.

First: TPSAB1
Second: TRIM5
The “Fold Change, Decreased Expression” value of the first is lower: −1.9835 for the first, −1.4743 for the second.

First: TXNDC5
Second: VSIG4
The “Fold Change, Decreased Expression” value of the first is higher: −1.4081 for the first, −1.5046 for the second.

For YES1, the “Fold Change, Decreased Expression” value was −1.9824.

Compared with ADM, ERBB2 is lower in “Fold Change, Increased Expression from Baseline to Day 28” value (“Fold Change, Increased Expression” for short): 1.2035 for the first, 1.1968 for the second.

Going from EZR to FABP2, the “Fold Change, Increased Expression” value rises from 1.1031 to 3.5893.

Going from FURIN to “GAL (GWTLNSAGYLLGPHAVGNHRSFSDKNGLTS; Galanin; UniProt P22466 33-62, looked up)”, the “Fold Change, Increased Expression” value rises from 1.2365 to 1.6888.

Going from GCG to Gal-3, the “Fold Change, Increased Expression” value falls from 1.8922 to 1.3504.

Going from IGF1R to IGF2R, the “Fold Change, Increased Expression” value falls from 1.2432 to 1.1734.

First: LTBP2
Second: METRNL
The “Fold Change, Increased Expression” value of the first is lower: 1.1874 for the first, 1.2013 for the second.

Going from MMP7 to MUC-16, the “Fold Change, Increased Expression” value rises from 1.3986 to 1.6356.

Going from NCAM1 to NTRK2, the “Fold Change, Increased Expression” value falls from 1.3216 to 1.118.

Compared with NTRK3, PIgR is lower in “Fold Change, Increased Expression” value: 1.2526 for the first, 1.1476 for the second.

Going from “PPY (APLEPVYPGDNATPEQMAQYAADLRRYINMLTRPRY; ends and bridges not checked; UniProt P01298 30-65, looked up)” to SCARA5, the “Fold Change, Increased Expression” value falls from 1.9703 to 1.1342.

Compared with THBS2, THPO is higher in “Fold Change, Increased Expression” value: 1.0963 for the first, 1.867 for the second.

With CCL11 the “Fold Change, Increased Expression” value was 1.2818 and 1.3146.
With IL6 the “Fold Change, Increased Expression” value was 2.0047 and 1.8649 and 1.7278.
For MCP-1, the “Fold Change, Increased Expression” value was 1.6302 and 1.4322.
With SCF the “Fold Change, Increased Expression” value was 1.4714 and 1.3943 and 1.4058.

same assay, conditions: responders (CR, VGPR, PR; N=19); baseline to day 28

With `N#CCC1(n2cc(-c3ncnc4[nH]ccc34)cn2)CN(C2CCN(C(=O)c3ccnc(C(F)(F)F)c3F)CC2)C1` [itacitinib, {1-{1-[3-Fluoro-2-(trifluoromethyl)isonicotinoyl]piperidin-4-yl}-3-[4-(7H-pyrrolo[2,3-d]pyrimidin-4-yl)-1H-pyrazol-1-yl]azetidin-3-yl}acetonitrile] the proteins significantly elevated was 105.

Work on `N#CCC1(n2cc(-c3ncnc4[nH]ccc34)cn2)CN(C2CCN(C(=O)c3ccnc(C(F)(F)F)c3F)CC2)C1` [itacitinib, {1-{1-[3-Fluoro-2-(trifluoromethyl)isonicotinoyl]piperidin-4-yl}-3-[4-(7H-pyrrolo[2,3-d]pyrimidin-4-yl)-1H-pyrazol-1-yl]azetidin-3-yl}acetonitrile] yielded a proteins significantly reduced of 248.

`N#CCC1(n2cc(-c3ncnc4[nH]ccc34)cn2)CN(C2CCN(C(=O)c3ccnc(C(F)(F)F)c3F)CC2)C1` [itacitinib, {1-{1-[3-Fluoro-2-(trifluoromethyl)isonicotinoyl]piperidin-4-yl}-3-[4-(7H-pyrrolo[2,3-d]pyrimidin-4-yl)-1H-pyrazol-1-yl]azetidin-3-yl}acetonitrile] was tested, and the “total proteins significantly modulated by treatment” value was 353.

system: subjects with aGvHD; assay: Parallel-cohort phase 1 trial, clinical response by CIBMTR response criteria at day 28; assay type: in vivo, human; conditions: 200 mg vs 300 mg once daily (QD) + corticosteroids
Text: A broad proteomic analysis identified predictive, prognostic, and pharmacodynamic biomarkers of response to the combination treatment.
Ten steroid-naive and eighteen steroid-refractory subjects with aGvHD were enrolled in the clinical trial. Plasma samples were collected from all 28 subjects prior to treatment (screening/baseline) and at day 28 following treatment. All subjects provided written consent prior to enrollment and sample collection. Based on the Center for International Blood and Marrow Transplant Research (CIBMTR) response criteria at day 28, subjects were separated into responders and non-responders. Responders included complete responders (CR; n=10), very good partial responders (VGPR; n=1), and partial responders (PR; n=8). Non-responders included mixed responders (n=2) and progressive disease/death (PD/Death; n=7).
as §1

With `N#CCC1(n2cc(-c3ncnc4[nH]ccc34)cn2)CN(C2CCN(C(=O)c3ccnc(C(F)(F)F)c3F)CC2)C1` [itacitinib, {1-{1-[3-Fluoro-2-(trifluoromethyl)isonicotinoyl]piperidin-4-yl}-3-[4-(7H-pyrrolo[2,3-d]pyrimidin-4-yl)-1H-pyrazol-1-yl]azetidin-3-yl}acetonitrile] the “Clinical response between the two itacitinib doses” value was “not significantly different”.

same assay, conditions: combination with corticosteroids; steroid naïve and refractory aGvHD patients

`N#CCC1(n2cc(-c3ncnc4[nH]ccc34)cn2)CN(C2CCN(C(=O)c3ccnc(C(F)(F)F)c3F)CC2)C1` [itacitinib, {1-{1-[3-Fluoro-2-(trifluoromethyl)isonicotinoyl]piperidin-4-yl}-3-[4-(7H-pyrrolo[2,3-d]pyrimidin-4-yl)-1H-pyrazol-1-yl]azetidin-3-yl}acetonitrile] was tested, and the overall responses was “improved overall responses”.
